According to patent publication US6630496B1, “Inhibitors of phospholipase enzymes” (Genetics Institute LLC, priority 1996, dated 2003):

Experiments:
cPLA2 [1] = biological target: T1, cPLA2 (Homo sapiens, UniProt P47712); test: Soluble substrate assay (LysoPC); type: biochemical; conditions: NA = inhibitory activity not detected; read-out: IC50 (μM) Lyso PC
T1 sequence (P47712 1-749): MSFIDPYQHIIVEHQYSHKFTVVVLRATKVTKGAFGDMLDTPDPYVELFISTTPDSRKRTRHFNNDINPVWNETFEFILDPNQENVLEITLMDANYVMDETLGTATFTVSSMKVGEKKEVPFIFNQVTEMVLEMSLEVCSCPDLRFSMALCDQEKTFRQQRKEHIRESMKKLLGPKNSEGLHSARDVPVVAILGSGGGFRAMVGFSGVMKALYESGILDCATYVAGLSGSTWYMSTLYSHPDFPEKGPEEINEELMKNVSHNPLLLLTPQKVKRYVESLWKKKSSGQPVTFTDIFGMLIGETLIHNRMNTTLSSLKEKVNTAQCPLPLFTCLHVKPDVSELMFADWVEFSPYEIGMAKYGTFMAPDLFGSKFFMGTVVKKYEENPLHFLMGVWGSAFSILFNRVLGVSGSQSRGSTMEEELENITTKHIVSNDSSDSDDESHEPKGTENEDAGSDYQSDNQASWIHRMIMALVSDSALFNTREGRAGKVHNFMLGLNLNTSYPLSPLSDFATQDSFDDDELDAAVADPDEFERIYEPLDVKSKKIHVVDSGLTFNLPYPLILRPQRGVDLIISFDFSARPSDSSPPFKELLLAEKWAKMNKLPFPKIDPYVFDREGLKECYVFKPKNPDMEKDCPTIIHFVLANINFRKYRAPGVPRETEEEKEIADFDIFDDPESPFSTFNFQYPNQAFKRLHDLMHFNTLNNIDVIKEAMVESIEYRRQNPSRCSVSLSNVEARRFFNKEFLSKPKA
Protocol: (b) Soluble Substrate Assay (LysoPC)
The lipid was resuspended by vortexing 80 mM Hepes pH 7.5, 1 mM EDTA (1.2×final concentration). A typical assay consisted of lipid suspension (85 μl) to which was added consecutively the inhibitor (5 μl in DMSO) and cPLA2, 200 ng in 80 mM Hepes pH 7.5, 2 mM DTT and […]. This assay was conducted by either the manual assay or automated assay protocol described below.

cPLA2 [2] = biological target: T1, cPLA2; test: Coumarine assay (7-hydroxycoumarinyl 6-heptenoate hydrolysis); type: biochemical; conditions: 60 μM 7-hydroxycoumarinyl 6-heptenoate; read-out: IC50 (μM) Coumarine
Protocol: 7-hydroxycoumarinyl 6-heptenoate was used as a monomeric substrate for cPLA2 as reported previously (Huang, Z. et al., 1994, Analytical Biochemistry 222, 110-115). Inhibitors were mixed with 200 μL assay buffer (80 mM Hepes, pH 7.5, 1 mM EDTA) containing 60 μM 7-hydroxycoumarinyl 6-heptenoate. The reaction was initiated by adding 4 μg cPLA2 in 50 μL assay buffer. Hydrolysis of the 7-hydroxycoumarinyl 6-heptenoate ester was monitored in a fluorometer by exciting at 360 nm and monitoring emission at 460 nm. Enzyme activity is proportional to the increasein emission at 460 nm per minute. In the presence of a cPLA2 inhibitor, the rate of increase is less.

[3] = tested on: carrageenan-induced footpad edema; test: Rat carrageenan-induced footpad edema test; type: in vivo; conditions: iv, 1 mg/ml, 5 ml/kg, male Sprague Dawley rats, footpad volume 3 hours after carrageenan, read-out: % inhibition of rat carrageenan-induced footpad edema
Protocol: Compounds of the present invention were also tested for in vivo activity in a rat paw edema test according to the procedure described in Example 89.
Rat Carrageenan-Induced Footpad Edema Test
Each compound was suspended in 0.3 ml absolute ethanol, 0.1 ml Tween-80 and 2.0 ml Dulbecco's PBS (without calcium or magnesium). To this mixture, 0.1 ml 1N NaOH was added. After solution was complete, additional amounts of PBS were added to adjust the concentration to 1 mg/ml. All comounds remained in solution. Compounds were administered i.v. in a volumne of 5 ml/kg to male Sprague Dawley rats at the same time that edema was induced by injection of 0.05 ml of 1% Type IV carrageenan into the hind footpad. Footpad volume was measured before dosing with compound and 3 hours after dosing with carageenan.

SMILES	IC50 (cPLA2 [1]) [µM]	IC50 (cPLA2 [2]) [µM]	inhibition in vivo at 1000 µg/mL, 5 mg/kg [3] [%]
O=C(CSCC1Cc2cc(OCc3ccc4ccccc4n3)ccc2N1C(=O)COc1cc(C(F)(F)F)cc(C(F)(F)F)c1)Nc1cc(C(F)(F)F)cc(C(F)(F)F)c1 (stereo not drawn) [Example 50]	4.4	> 50	11.7
CCC(C)(C)c1ccc(OCC(=O)N2c3ccc(OCc4ccccc4)cc3CC2CSc2ccccc2C(=O)O)c(C(C)(C)CC)c1 (stereo not drawn) [Example 67, 2-(2-(-5-Benzyloxy-1-(2,4-bis(1,1-dimethy)propyl)phenoxyacetyl)indolinyl)methylthiobenzoic Acid]	0.22	10	17.5
CCC(C)(C)c1ccc(OCC(=O)N2c3ccc(OCc4ccccc4)cc3CC2CSCC(=O)N(C)c2cc(C(=O)O)ccc2OC)c(C(C)(C)CC)c1 (stereo not drawn) [Example 70, 3-N-Methyl-(2-(-5-benzyloxy-1-(2,4-bis(1,1-dimethy)propyl)phenoxyacetyl)indolinyl)methylthioacetamido-4-methoxybenzoic Acid]	0.84	19	21.7
